Test results reported in US5104869A, “Renin inhibitors” (American Cyanamid Company, priority 1990, dated 1992).
pIC50: −log10 of the molar value.

What follows are compounds tested against T1, human kidney renin (Homo sapiens, UniProt P00797) (assay: Radioimmunoassay Screen for Renin Inhibitors (in vitro angiotensin I generation, quantitated by radioimmunoassay)). Details: purified human plasma angiotensinogen, pH 6.0, one hour at 37° C., read-out: Renin Inhibiton IC50.
T1 construct: Human renin was prepared from human kidney; from tissue; host or cells: human kidney
T1 sequence (P00797 67-406): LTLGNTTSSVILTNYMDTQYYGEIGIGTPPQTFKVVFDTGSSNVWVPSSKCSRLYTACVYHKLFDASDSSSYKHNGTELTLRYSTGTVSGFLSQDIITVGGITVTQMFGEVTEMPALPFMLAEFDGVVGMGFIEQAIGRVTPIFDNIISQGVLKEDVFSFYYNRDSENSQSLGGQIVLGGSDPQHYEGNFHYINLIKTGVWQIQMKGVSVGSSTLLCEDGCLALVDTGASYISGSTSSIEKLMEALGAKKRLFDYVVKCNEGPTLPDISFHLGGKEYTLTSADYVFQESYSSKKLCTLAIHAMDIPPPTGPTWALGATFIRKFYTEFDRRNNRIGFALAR
Format: biochemical
Procedure: The in vitro method for the screening of anti-renin compounds involves, first, angiotensin I generation, and second, the quantitation of the angiotensin I produced by radioimmunoassay.
The incubation medium consisted of 20 μl of purified human plasma angiotensinogen (1); 10 μl of human kidney renin (2); 5 μl of phenylmethylsulfonyl fluoride; 10 μl of disodium EDTA (10 mM); 10 μl of antirenin compound (5×10^-3, 5×10^-4, 5×10^-5) in dimethylformamide, or ethanol and a suitable amount of maleate buffer (77 mM, pH 6.0) to make a final volume of 500 μl. The reaction mixture was incubated for one hour at 37° C. and the enzymatic reaction was stopped by placing the tube in ice-cold water. The angiotensin I generated during the incubation was measured by a radioimmunoassay plasma renin activity kit (Clinical Assays, Inc.).
The incubation medium consisted of either 100 μl aliquots of the above reaction mixture or a standard amount of angiotensin I; 1000 μl of phosphate buffer (100 mM, pH 7.6) and 100 μl of (^125 I)angiotensinin a gamma-coat, tube. After three hours of incubation at room temperature, the tubes were decanted, and the radioactivity of each tube was determined in a gamma counter. Duplicate determinations were performed for each incubation. The results were expressed in ng of angiotensin I generated per ml of generation medium per hour of incubation (ng/AI/ml/hr).
(1) The human plasma angiotensinogen derived from the blood of a person receiving oral contraceptive pills was purified by chromatography on a pepstatinaminohexyl-agarose column.
(2) Human renin was prepared from human kidney.

| pIC50 | SMILES |
| --- | --- |
| 5.55 | COc1cc(C[C@H](CC(=O)N2CCOCC2)C(=O)N[C@@H](Cc2c[nH]cn2)C(=O)N[C@@H](CC(C)C)[C@@H](O)c2nccs2)cc(OC)c1OC |
| 6.68 | CC(C)C[C@H](NC(=O)[C@@H](CC(=O)NCCCn1ccnc1)Cc1cccc2ccccc12)C(=O)N[C@@H](CC(C)C)[C@@H](O)c1nccs1 |
| 6.36 | CC(C)C[C@H](NC(=O)[C@@H](CC(=O)N1CCN(C)CC1)Cc1cccc2ccccc12)C(=O)N[C@@H](CC(C)C)[C@@H](O)c1nccs1 |
| 6.39 | COC(CNC(=O)C[C@@H](Cc1cccc2ccccc12)C(=O)N[C@@H](CC(C)C)C(=O)N[C@@H](CC(C)C)[C@@H](O)c1nccs1)OC |
| 6.59 | O=C(N[C@@H](Cc1cnc[nH]1)C(=O)N[C@@H](CC1CCCCC1)[C@@H](O)c1ccccn1)[C@@H](CC(=O)N1CCOCC1)Cc1cccc2ccccc12 |
| 6.80 | CC(C)C[C@H](NC(=O)[C@@H](CC(=O)OC(C)(C)C)Cc1cccc2ccccc12)C(=O)N[C@@H](CC1CCCCC1)[C@@H](O)c1ccccn1 |
| 7.11 | CC(C)C[C@H](NC(=O)[C@@H](CC(=O)N1CCOCC1)Cc1cccc2ccccc12)C(=O)N[C@@H](CC1CCCCC1)[C@@H](O)c1ccccn1 |
| 6.26 | CC(C)C[C@H](NC(=O)[C@@H](CC(=O)O)Cc1cccc2ccccc12)C(=O)N[C@@H](CC(C)C)[C@@H](O)c1nccs1 |
| 6.40 | CC(C)C[C@H](NC(=O)[C@@H](CC(=O)NCCN1CCOCC1)Cc1cccc2ccccc12)C(=O)N[C@@H](CC(C)C)[C@@H](O)c1nccs1 |
| 6.36 | CC(C)C[C@H](NC(=O)[C@@H](CC(=O)NCCCN1CCOCC1)Cc1cccc2ccccc12)C(=O)N[C@@H](CC(C)C)[C@@H](O)c1nccs1 |
| 7.48 | CC(C)C[C@H](NC(=O)[C@@H](CC(=O)NCCc1cccn1C)Cc1cccc2ccccc12)C(=O)N[C@@H](CC(C)C)[C@@H](O)c1nccs1 |
| 6.77 | CC(C)C[C@H](NC(=O)[C@@H](CC(=O)NCc1cccnc1)Cc1cccc2ccccc12)C(=O)N[C@@H](CC(C)C)[C@@H](O)c1nccs1 |
| 6.92 | CC(C)C[C@H](NC(=O)[C@@H](CC(=O)NCc1ccccn1)Cc1cccc2ccccc12)C(=O)N[C@@H](CC(C)C)[C@@H](O)c1nccs1 |
| 7.13 | CC(C)C[C@H](NC(=O)[C@@H](CC(=O)NCCCN1CCCC1=O)Cc1cccc2ccccc12)C(=O)N[C@@H](CC(C)C)[C@@H](O)c1nccs1 |
| 7.36 | CC(C)C[C@H](NC(=O)[C@@H](CC(=O)NCCOc1ccccn1)Cc1cccc2ccccc12)C(=O)N[C@@H](CC(C)C)[C@@H](O)c1nccs1 |
| 7.03 | CC(C)C[C@H](NC(=O)[C@@H](CC(=O)NCCCCn1ccnc1)Cc1cccc2ccccc12)C(=O)N[C@@H](CC(C)C)[C@@H](O)c1nccs1 |

| pIC50 | SMILES |
| --- | --- |
| 5.42 | CC(C)C[C@H](NC(=O)[C@@H](CC(=O)O)Cc1cccc2ccccc12)C(=O)N[C@@H](CC1CCCCC1)[C@@H](O)c1ccccn1 |
| 6.96 | CC(C)C[C@H](NC(=O)[C@@H](CC(=O)NCCc1ccccn1)Cc1cccc2ccccc12)C(=O)N[C@@H](CC(C)C)[C@@H](O)c1nccs1 |
| 6.19 | CC(C)C[C@H](NC(=O)[C@@H](CC(=O)NCCN1CCCCC1)Cc1cccc2ccccc12)C(=O)N[C@@H](CC(C)C)[C@@H](O)c1nccs1 |
| 6.13 | CC(C)C[C@H](NC(=O)[C@@H](CC(=O)NCCN1CCCC1)Cc1cccc2ccccc12)C(=O)N[C@@H](CC(C)C)[C@@H](O)c1nccs1 |
| 5.15 | CC(C)(C)NC(=O)C[C@@H](Cc1cccc2ccccc12)C(=O)N[C@@H](Cc1cnc[nH]1)C(=O)N[C@@H](CC1CCCCC1)[C@@H](O)c1nccs1 |
| 6.77 | CC(C)C[C@H](NC(=O)[C@@H](CC(=O)NCCOc1ccccn1)Cc1cccc2ccccc12)C(=O)N[C@@H](CC1CCCCC1)[C@@H](O)c1ccccn1 |
| 6.89 | CC(C)C[C@H](NC(=O)[C@@H](CC(=O)NCCCN1CCCC1=O)Cc1ccccc1)C(=O)N[C@@H](CC1CCCCC1)[C@@H](O)c1ccccn1 |
| 5.22 | COc1cc(C[C@H](CC(=O)O)C(=O)N[C@@H](CC(C)C)C(=O)N[C@@H](CC(C)C)[C@@H](O)c2nccs2)cc(OC)c1OC |
| 5.32 | CC(C)(C)OC(=O)C[C@@H](Cc1cccc2ccccc12)C(=O)N[C@@H](Cc1cnc[nH]1)C(=O)N[C@@H](CC1CCCCC1)[C@@H](O)c1ccccn1 |
| 6.52 | CC(C)(C)OC(=O)C[C@@H](Cc1cccc2ccccc12)C(=O)N[C@@H](Cc1cnc[nH]1)C(=O)N[C@@H](CC1CCCCC1)[C@@H](O)c1nccs1 |
| 7.46 | O=C(N[C@@H](Cc1cnc[nH]1)C(=O)N[C@@H](CC1CCCCC1)[C@@H](O)c1nccs1)[C@@H](CC(=O)N1CCOCC1)Cc1cccc2ccccc12 |
| 4.38 | CC(C)C[C@H](NC(=O)[C@@H](CC(=O)N1CCOCC1)Cc1ccccc1)C(=O)N[C@@H](CC(C)C)[C@@H](O)c1nccs1 |
| 5.19 | CC(C)C[C@H](NC(=O)[C@@H](CC(=O)OC(C)(C)C)Cc1ccccc1)C(=O)N[C@@H](CC(C)C)[C@@H](O)c1nccs1 |
| 6.80 | CC(C)C[C@H](NC(=O)[C@@H](CC(=O)OC(C)(C)C)Cc1ccccc1)C(=O)N[C@@H](CC1CCCCC1)[C@@H](O)c1nccs1 |
| 6.24 | O=C(C[C@@H](Cc1cccc2ccccc12)C(=O)N[C@@H](Cc1cnc[nH]1)C(=O)N[C@@H](CC1CCCCC1)[C@@H](O)c1nccs1)NCCOc1ccccn1 |
